Measured values reported in PMC5063058, “Cephalosporins inhibit human metallo β-lactamase fold DNA repair nucleases SNM1A and SNM1B/apollo” (Chemical Communications (Cambridge, England), 2016).
One block for each compound: values may come before it.

Experiments:
[1] = real-time fluorescence nuclease assay (fluorescein/BHQ1 20-nt ssDNA); assay type: biochemical, Homo sapiens; details: read-out: IC50 SNM1A ^a /μM
From the text: (§1) real-time fluorescence nuclease assay (fluorescein/BHQ1 20-nt ssDNA) on SNM1B

SNM1A [2] = molecular target: T1, SNM1A (Homo sapiens, UniProt Q6PJP8); assay: as above; assay type: biochemical
T1 construct: gene DCLRE1A; 5'-3' exonuclease with MBL and beta-CASP domains
T1 sequence (Q6PJP8 700-1040): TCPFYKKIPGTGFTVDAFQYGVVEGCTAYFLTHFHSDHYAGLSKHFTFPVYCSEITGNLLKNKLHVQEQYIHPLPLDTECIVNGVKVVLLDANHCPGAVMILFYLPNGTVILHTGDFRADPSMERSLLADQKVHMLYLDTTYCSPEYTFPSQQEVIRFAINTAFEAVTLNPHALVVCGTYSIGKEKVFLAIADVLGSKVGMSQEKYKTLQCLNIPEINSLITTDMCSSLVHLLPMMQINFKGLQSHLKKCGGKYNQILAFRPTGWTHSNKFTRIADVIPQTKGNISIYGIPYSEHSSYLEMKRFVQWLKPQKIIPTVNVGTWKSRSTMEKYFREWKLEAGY
From the text: real-time fluorescence nuclease assay (fluorescein/BHQ1 20-nt ssDNA) on SNM1A

SNM1B = molecular target: T2, SNM1B (Homo sapiens, UniProt Q9H816); assay: as above; assay type: biochemical
T2 construct: gene DCLRE1B; 5'-3' exonuclease with MBL and beta-CASP domains
T2 sequence (Q9H816 1-335): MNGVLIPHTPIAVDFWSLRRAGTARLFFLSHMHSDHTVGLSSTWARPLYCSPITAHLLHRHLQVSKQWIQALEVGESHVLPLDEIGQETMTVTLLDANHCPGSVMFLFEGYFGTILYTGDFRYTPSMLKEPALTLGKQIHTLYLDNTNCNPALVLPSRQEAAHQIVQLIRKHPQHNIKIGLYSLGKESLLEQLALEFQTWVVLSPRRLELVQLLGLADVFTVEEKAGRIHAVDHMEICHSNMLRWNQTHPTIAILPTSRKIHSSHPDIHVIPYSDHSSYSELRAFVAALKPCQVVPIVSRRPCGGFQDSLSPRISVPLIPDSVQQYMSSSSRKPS
From the text: as §1

SNM1A [3] = molecular target: T1, SNM1A; assay: quantitative 1H NMR binding assay

SMILES: CC(=O)OCC1=C(C(=O)O)N2C(=O)[C@@H](N)[C@H]2SC1 [compound 1, 7-ACA]
IC50 (SNM1B): 32 ± 10 µM
IC50 (SNM1A [2]): 7 ± 1 µM

SMILES: CC(=O)OCC1=C(C(=O)O)N2C(=O)[C@@H](NC(=O)CCC[C@@H](N)C(=O)O)[C@H]2SC1 [compound 2, Cephalosporin C]
IC50 (SNM1B): > 500 µM
IC50 (SNM1A [2]): 61 ± 27 µM

Results, then the compound that gave them:

IC50 [1]: > 500 µM
IC50 (SNM1A [2]): > 500 µM
SMILES: CC(C)(O/N=C(\C(=O)N[C@@H]1C(=O)N2C(C(=O)[O-])=C(C[n+]3ccccc3)CS[C@H]12)c1csc(N)n1)C(=O)O [Ceftazidime]

IC50 (SNM1B): 129 ± 20 µM
IC50 (SNM1A [2]): 5 ± 2 µM
SMILES: CO/N=C(\C(=O)N[C@@H]1C(=O)N2C(C(=O)O)=C(COC(C)=O)CS[C@H]12)c1csc(N)n1 [compound 3, Cefotaxime]

IC50 (SNM1B): 40 ± 14 µM
Kd (SNM1A [3]): 19 ± 4 µM
IC50 (SNM1A [2]): 4 ± 2 µM
SMILES: CO/N=C(\C(=O)N[C@@H]1C(=O)N2C(C(=O)O)=C(CSc3nc(=O)c(=O)[nH]n3C)CS[C@H]12)c1csc(N)n1 [compound 4, Ceftriaxone]
